In article PMC7956643, “Synthesis of Novel Pyrido[1,2-c]pyrimidine Derivatives with 6-Fluoro-3-(4-piperidynyl)-1,2-benzisoxazole Moiety as Potential SSRI and 5-HT1A Receptor Ligands” (International Journal of Molecular Sciences, 2021):
Marks after values point to notes of the source that are not given here. One block for each compound: values may come before it.

Legend:
5-HT7 receptors = biological target: T1, 5-HT7 receptors (Homo sapiens, UniProt P34969); test: 5-HT7 radioligand binding assay; conditions: [3H]-5-CT; HEK293 cells, human receptor
T1 construct: expressed in transfected cells
T1 sequence (P34969 whole entry): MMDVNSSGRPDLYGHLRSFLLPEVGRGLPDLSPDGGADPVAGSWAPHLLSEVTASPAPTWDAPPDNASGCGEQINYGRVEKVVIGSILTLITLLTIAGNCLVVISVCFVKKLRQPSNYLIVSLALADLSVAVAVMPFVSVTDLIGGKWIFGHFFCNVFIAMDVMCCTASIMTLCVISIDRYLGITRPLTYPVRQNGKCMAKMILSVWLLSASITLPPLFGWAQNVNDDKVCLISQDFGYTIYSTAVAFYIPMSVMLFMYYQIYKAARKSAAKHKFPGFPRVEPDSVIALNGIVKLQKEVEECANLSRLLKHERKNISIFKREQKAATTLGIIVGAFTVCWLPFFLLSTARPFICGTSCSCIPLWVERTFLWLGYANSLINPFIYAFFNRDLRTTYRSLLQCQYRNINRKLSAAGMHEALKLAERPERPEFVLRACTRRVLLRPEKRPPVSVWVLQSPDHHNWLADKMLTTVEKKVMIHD
Experimental: (§1) In vitro radioligand binding assays for 5-HT2A, 5-HT6, 5-HT7 and D2 receptors were carried out using methods published by Zajdel et al.. For the assays, HEK293 cell cultures stably expressing the investigated human receptors were used. Cell pellets were thawed and homogenized in 20 vol of assay buffer using an Ultra Turrax tissue homogenizer, then centrifuged twice at 35000 g for 20 min at 4 °C, with incubation for 15 min at 37 °C in between. The composition of the assay buffers was as follows: for 5-HT2A receptors—50 mM Tris-HCl, 0.1 mM EDTA, 4 mM MgCl2 and 0.1% ascorbate; for 5-HT6 receptors—50 mM Tris-HCl, 0.5 mM EDTA, 4 mM MgCl2; for 5-HT7 receptors—50 mM Tris-HCl, 4 mM MgCl2, 10 µM pargyline and 0.1% ascorbate; for D2 receptors—50 mM Tris-HCl, 1 mM EDTA, 4 mM MgCl2, 120 mM NaCl, 5 mM KCl, 1.5 mM CaCl2 and 0.1% ascorbate. All assays were incubated in total volume of 200 mL in 96-well microtitre plates for 1 h at 37 °C, except for 5-HT2A receptors which were incubated at room temperature for 1.5 h. The process of equilibration was terminated by rapid filtration through Unifilter plates with a 96-well cell harvester, and radioactivity retained on the filters was quantified on a Microbeta plate reader (PerkinElmer, USA). For displacement studies, the assay samples contained as radioligands (PerkinElmer): 2 nM [^3H]-ketanserin (spec. act. 53.4 Ci/mmol) for 5-HT2A receptors; 2 nM [^3H]-LSD (spec. act. 83.6 Ci/mmol) for 5-HT6 receptors; 0.6 nM [^3H]-5-CT (spec. act. 39.2 Ci/mmol) for 5-HT7 receptors and [^3H]-raclopride (spec. act. 76.0 Ci/mmol) for D2 receptors. […] Each compound was tested in triplicate at 7–8 concentrations (10^-11-10^-4 M). The inhibition constants (Ki) were calculated from the Cheng–Prusoff equation [46]. Results were expressed as means of at least two separate experiments.

D2 receptors = biological target: T2, D2 receptors (Homo sapiens, UniProt P14416); test: D2 radioligand binding assay; conditions: [3H]-raclopride; HEK293 cells, human receptor
T2 construct: expressed in transfected cells
T2 sequence (P14416 whole entry): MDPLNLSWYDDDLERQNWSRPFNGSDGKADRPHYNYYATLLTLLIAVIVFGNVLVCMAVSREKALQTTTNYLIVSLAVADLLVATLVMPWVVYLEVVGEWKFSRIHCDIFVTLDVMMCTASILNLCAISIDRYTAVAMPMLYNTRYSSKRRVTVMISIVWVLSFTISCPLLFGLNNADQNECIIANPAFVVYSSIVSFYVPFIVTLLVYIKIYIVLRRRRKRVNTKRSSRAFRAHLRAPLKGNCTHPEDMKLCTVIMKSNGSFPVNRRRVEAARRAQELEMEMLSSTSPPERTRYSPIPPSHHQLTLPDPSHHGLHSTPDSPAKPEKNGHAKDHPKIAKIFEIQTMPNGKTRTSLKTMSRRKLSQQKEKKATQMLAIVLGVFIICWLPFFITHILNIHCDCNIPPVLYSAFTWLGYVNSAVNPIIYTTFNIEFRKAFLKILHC
Experimental: as §1

5-HT6 receptors = biological target: T3, 5-HT6 receptors (Homo sapiens, UniProt P50406); test: 5-HT6 radioligand binding assay; conditions: [3H]-LSD; HEK293 cells, human receptor
T3 construct: expressed in transfected cells
T3 sequence (P50406 whole entry): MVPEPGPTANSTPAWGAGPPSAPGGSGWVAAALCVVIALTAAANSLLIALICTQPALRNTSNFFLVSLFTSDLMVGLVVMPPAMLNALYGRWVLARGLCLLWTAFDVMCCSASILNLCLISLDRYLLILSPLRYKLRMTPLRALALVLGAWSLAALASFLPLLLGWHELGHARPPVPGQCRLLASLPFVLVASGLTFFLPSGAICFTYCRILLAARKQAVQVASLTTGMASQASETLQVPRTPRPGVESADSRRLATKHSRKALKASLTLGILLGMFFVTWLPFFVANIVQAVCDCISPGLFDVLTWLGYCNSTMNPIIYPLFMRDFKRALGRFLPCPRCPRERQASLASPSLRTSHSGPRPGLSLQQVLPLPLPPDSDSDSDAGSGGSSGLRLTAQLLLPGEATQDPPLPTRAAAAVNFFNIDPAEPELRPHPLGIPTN
Experimental: as §1

5-HT1A receptor [1] = biological target: T4, 5-HT1A receptor (Mus musculus, UniProt Q64264); test: Effect of WAY-100635 on the hypothermia induced by tested compounds; assay type: in vivo, CD-1 mice; conditions: mice
T4 construct: from tissue; host or cells: whole animal, male CD-1 mice
T4 sequence (Q64264 1-421): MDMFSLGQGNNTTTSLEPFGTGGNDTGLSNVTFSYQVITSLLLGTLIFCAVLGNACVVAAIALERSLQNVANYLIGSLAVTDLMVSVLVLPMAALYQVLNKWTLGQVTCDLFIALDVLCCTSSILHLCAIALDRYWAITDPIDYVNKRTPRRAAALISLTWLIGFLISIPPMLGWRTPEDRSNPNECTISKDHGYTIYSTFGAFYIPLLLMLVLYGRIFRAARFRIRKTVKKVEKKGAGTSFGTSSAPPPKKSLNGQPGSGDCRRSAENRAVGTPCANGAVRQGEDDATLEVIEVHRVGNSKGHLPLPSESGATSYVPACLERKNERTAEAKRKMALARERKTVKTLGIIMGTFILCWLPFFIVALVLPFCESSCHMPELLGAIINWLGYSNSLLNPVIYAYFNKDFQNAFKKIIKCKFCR
Experimental: (§2) The experiments were performed on male CD-1 mice (23–40 g). The animals were kept at room temperature (21 ± 2 °C) on a natural day-night cycle (March–October) and housed under standard laboratory conditions. They had free access to food and tap water before the experiment. Each experimental group consisted of 6–8 animals/dose. All the animals were used only once. 8-Hydroxy-2-(di-n-propylamino)tetralin hydro-bromide (8-OH-DPAT, Research Biochemical Inc.) was used as aqueous solution. […] Vehicle group was administered as 10% aqueous solution of dimethyl sulphoxide (DMSO). 8-OH-DPAT was injected subcutaneously (sc); 6a and 7g were given intraperitoneally (ip) in a volume of 10 mL/kg/mice. The obtained data were analyzed by Dunnett’s test (one drug administration) or by the Newman–Keuls test (two drugs administrations). Forced swim test: the obtained data was evaluated by one-way analysis of variance (ANOVA) followed by the Dunnett’s multiple comparisons test: p < 0.05 was considered significant.
(§3) The results were expressed as a change in body temperature (Δt) with respect to the basal body temperature, as measured at the beginning of the experiment.

5-HT1A receptor [2] = biological target: T4, 5-HT1A receptor; test: Body temperature in mice (induced hypothermia); assay type: in vivo, CD-1 mice; conditions: mice
Experimental: as §2, §3

SERT protein = biological target: T5, SERT protein (Rattus norvegicus, UniProt P31652); test: SERT radioligand binding assay; conditions: [3H]-citalopram 1.0 nM; rat cortex tissue
T5 construct: from tissue; host or cells: rat cortex
T5 sequence (P31652 whole entry): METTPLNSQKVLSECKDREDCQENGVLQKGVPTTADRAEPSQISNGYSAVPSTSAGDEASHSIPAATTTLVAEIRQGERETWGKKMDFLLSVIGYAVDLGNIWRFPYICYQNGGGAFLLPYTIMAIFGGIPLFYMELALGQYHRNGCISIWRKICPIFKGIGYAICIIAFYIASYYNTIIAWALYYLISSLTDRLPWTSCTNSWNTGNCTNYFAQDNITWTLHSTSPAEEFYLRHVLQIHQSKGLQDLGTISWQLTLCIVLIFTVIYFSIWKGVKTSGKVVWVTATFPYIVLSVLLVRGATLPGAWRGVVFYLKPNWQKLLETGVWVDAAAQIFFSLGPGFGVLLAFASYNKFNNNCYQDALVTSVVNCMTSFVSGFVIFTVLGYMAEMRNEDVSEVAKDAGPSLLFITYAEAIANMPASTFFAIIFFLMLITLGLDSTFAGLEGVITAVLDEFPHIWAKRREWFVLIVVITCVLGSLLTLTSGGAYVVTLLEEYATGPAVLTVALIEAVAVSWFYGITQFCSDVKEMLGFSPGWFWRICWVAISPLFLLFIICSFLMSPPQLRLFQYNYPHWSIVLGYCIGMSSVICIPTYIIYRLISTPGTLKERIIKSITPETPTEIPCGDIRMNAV
Experimental: Radioligand binding was performed using rat cortex tissue. All assays were carried out in duplicate. First, 50 µL working solution of the tested compounds, 50 µL [^3H]-citalopram (final concentration 1.0 nM) and 150 µL tissue suspension, prepared in assay buffer (50 mM Tris. pH 7.7; 150 mM NaCl; 5 mM KCl), were transferred to a polypropylene 96-well microplate using 96-wells pipetting station Rainin Liquidator (MettlerToledo). […] The reaction was terminated by rapid filtration through GF/B filter mate presoaked with 0.3% polyethyleneimine for 30 min. Ten rapid washes with 200 µL 50 mM Tris buffer (4 °C, pH 7.7) were performed using an automated harvester system—Harvester-96 MACH III FM (Tomtec). […] Data were fitted to a one-site curve-fitting equation with Prism 6 (GraphPad Software) and Ki values were estimated from the Cheng–Prusoff equation.

human 5-HT1A receptor = biological target: T6, human 5-HT1A receptor (Homo sapiens, UniProt P08908); test: 5-HT1A radioligand binding assay; conditions: [3H]-8-OH-DPAT 1 nM; membranes from CHO-K1 cells with human 5-HT1A receptor
T6 construct: purchased PerkinElmer; host or cells: CHO-K1 cells, stably transfected
T6 sequence (P08908 1-422): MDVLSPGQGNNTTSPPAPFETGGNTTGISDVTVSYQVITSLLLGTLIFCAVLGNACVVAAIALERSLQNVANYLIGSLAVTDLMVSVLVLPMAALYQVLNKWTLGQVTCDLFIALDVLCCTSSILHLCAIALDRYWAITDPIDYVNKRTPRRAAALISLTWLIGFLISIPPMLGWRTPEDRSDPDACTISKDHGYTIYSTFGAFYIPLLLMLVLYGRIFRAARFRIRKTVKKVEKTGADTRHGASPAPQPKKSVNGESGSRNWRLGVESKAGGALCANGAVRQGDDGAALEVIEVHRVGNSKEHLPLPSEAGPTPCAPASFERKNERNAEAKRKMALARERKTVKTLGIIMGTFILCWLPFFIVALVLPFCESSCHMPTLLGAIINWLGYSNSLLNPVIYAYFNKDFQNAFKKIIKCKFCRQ
Experimental: Radioligand binding was performed using membranes from CHO-K1 cells stably transfected with the human 5-HT1A receptor (PerkinElmer, Fremont, CA, USA). All assays were carried out in duplicate. Then, 50 µL working solution of the tested compounds, 50 µL [^3H]-8-OH-DPAT (final concentration 1 nM) and 150 µL diluted membranes (20 µg protein per well) prepared in assay buffer (50 mM Tris, pH 7.4, 10 mM MgSO4, 0.5 mM EDTA, 0.1% ascorbic acid) were transferred to a polypropylene 96-well microplate using 96-wells pipetting station Rainin Liquidator (MettlerToledo, Columbus, OH, USA). […] The reaction was terminated by rapid filtration through GF/B filter mate, presoaked with 0.5% polyethyleneimine for 30 min. Ten rapid washes with 200 µL 50 mM Tris buffer (4 °C, pH 7.4) were performed using an automated harvester system—Harvester-96 MACH III FM (Tomtec, Hamden, CT, USA). […] Data were fitted to a one-site curve-fitting equation with Prism 6 (GraphPad Software, San Diego, CA, USA) and Ki values were estimated from the Cheng–Prusoff equation.

5-HT2A receptors = biological target: T7, 5-HT2A receptors (Homo sapiens, UniProt P28223); test: 5-HT2A radioligand binding assay; conditions: [3H]-ketanserin; HEK293 cells, human receptor
T7 construct: expressed in transfected cells
T7 sequence (P28223 whole entry): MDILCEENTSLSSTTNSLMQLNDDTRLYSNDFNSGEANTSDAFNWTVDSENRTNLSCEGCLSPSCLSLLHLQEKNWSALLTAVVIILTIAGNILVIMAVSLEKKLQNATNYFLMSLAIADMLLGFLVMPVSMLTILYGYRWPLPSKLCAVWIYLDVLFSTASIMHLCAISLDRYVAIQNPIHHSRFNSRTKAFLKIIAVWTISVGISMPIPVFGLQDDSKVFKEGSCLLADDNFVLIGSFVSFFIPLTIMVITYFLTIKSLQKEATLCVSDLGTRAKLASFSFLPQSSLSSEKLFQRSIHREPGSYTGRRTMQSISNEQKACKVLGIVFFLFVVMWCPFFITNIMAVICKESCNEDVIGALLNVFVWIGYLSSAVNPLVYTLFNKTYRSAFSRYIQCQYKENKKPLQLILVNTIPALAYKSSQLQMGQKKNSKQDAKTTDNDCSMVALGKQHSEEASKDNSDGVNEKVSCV
Experimental: as §1, with “All assays were incubated in total volume of 200 mL in 96-well microtitre plates for 1 h at 37 °C, except for 5-HT2A receptors which were incubated at room temperature for 1.5 h.” left out

Ki (5-HT7 receptors): 94 ± 11 nM
Ki (D2 receptors): 10 ± 1 nM
Ki (5-HT6 receptors): 400 ± 32 nM
melting point: 108 to 109 °C
Δt ± SEM, body temperature (5-HT1A receptor [1]; WAY-100635 0.1 mg/kg sc 15 min before compound 1.25 mg/kg, 30 min): −1.2 ± 0.2 ^b °C
Δt ± SEM, body temperature (5-HT1A receptor [1]; WAY-100635 0.1 mg/kg sc 15 min before compound 1.25 mg/kg, 60 min): −0.7 ± 0.3 ^d °C
Δt ± SEM, body temperature (5-HT1A receptor [1]; vehicle + compound 1.25 mg/kg, 30 min): −1.5 ± 0.3 ^c °C
Δt ± SEM, body temperature (5-HT1A receptor [1]; vehicle + compound 1.25 mg/kg, 60 min): −1.7 ± 0.3 ^c °C
Induction of hypothermia in mice (5-HT1A receptor [2]): induced hypothermia
Δt ± SEM, body temperature (5-HT1A receptor [2]; 1.25 mg/kg ip, 30 min): −1.5 ± 0.3 ^b °C
Δt ± SEM, body temperature (5-HT1A receptor [2]; 1.25 mg/kg ip, 60 min): −1.7 ± 0.3 ^b °C
Δt ± SEM, body temperature (5-HT1A receptor [2]; 1.25 mg/kg ip, 90 min): −1.3 ± 0.4 ^b °C
Δt ± SEM, body temperature (5-HT1A receptor [2]; 1.25 mg/kg ip, 120 min): −1.0 ± 0.3 °C
Δt ± SEM, body temperature (5-HT1A receptor [2]; 2.5 mg/kg ip, 30 min): −2.2 ± 0.2 ^b °C
Δt ± SEM, body temperature (5-HT1A receptor [2]; 2.5 mg/kg ip, 60 min): −2.8 ± 0.3 ^b °C
Δt ± SEM, body temperature (5-HT1A receptor [2]; 2.5 mg/kg ip, 90 min): −2.9 ± 0.3 ^b °C
Δt ± SEM, body temperature (5-HT1A receptor [2]; 2.5 mg/kg ip, 120 min): −3.0 ± 0.4 ^b °C
Δt ± SEM, body temperature (5-HT1A receptor [2]; 5 mg/kg ip, 30 min): −2.1 ± 0.1 ^b °C
Δt ± SEM, body temperature (5-HT1A receptor [2]; 5 mg/kg ip, 60 min): −3.4 ± 0.3 ^b °C
Δt ± SEM, body temperature (5-HT1A receptor [2]; 5 mg/kg ip, 90 min): −3.9 ± 0.5 ^b °C
Δt ± SEM, body temperature (5-HT1A receptor [2]; 5 mg/kg ip, 120 min): −4.2 ± 0.8 ^b °C
SMILES: COc1ccc(-c2c3n(c(=O)n(CCCCN4CCC(c5noc6cc(F)ccc56)CC4)c2=O)CCCC3)cc1 [Compound 7g, 4-(4-Methoxyphenyl)-2-{4-[4-(6-fluoro-1,2-benzoxazol)-1-piperidyl]butyl}-5,6,7,8-tetrahydro-pyrido[1,2-c]pyrimidine-1,3-dione]

Ki (SERT protein): 48 ± 2.4 nM
Ki (human 5-HT1A receptor): 5 ± 0.5 nM
Ki (5-HT2A receptors): 16 ± 2 nM
SMILES: COc1ccc(-c2c3n(c(=O)n(CCCCN4CCC(c5noc6cc(F)ccc56)CC4)c2=O)CCCC3)cc1 [Compound 7g]

Ki (5-HT7 receptors): 161 ± 27 nM
Ki (D2 receptors): 17 ± 2 nM
Ki (5-HT6 receptors): 740 ± 183 nM
melting point: 57 to 60 °C
Ki (SERT protein): 311 ± 35 nM
Ki (human 5-HT1A receptor): 9.5 ± 1.1 nM
Ki (5-HT2A receptors): 44 ± 6 nM
SMILES: O=c1c(-c2ccc(F)cc2)c2n(c(=O)n1CCCCN1CCC(c3noc4cc(F)ccc34)CC1)CCCC2 [Compound 7i, 4-(4-Fluorophenyl)-2-{4-[4-(6-fluoro-1,2-benzoxazol)-1-piperidyl]butyl}-5,6,7,8-tetrahydro-pyrido[1,2-c]pyrimidine-1,3-dione]
